For one experiment, the target named is T1, Endothelin-1 receptor (Homo sapiens, UniProt P25101).
T1 sequence (P25101 whole entry): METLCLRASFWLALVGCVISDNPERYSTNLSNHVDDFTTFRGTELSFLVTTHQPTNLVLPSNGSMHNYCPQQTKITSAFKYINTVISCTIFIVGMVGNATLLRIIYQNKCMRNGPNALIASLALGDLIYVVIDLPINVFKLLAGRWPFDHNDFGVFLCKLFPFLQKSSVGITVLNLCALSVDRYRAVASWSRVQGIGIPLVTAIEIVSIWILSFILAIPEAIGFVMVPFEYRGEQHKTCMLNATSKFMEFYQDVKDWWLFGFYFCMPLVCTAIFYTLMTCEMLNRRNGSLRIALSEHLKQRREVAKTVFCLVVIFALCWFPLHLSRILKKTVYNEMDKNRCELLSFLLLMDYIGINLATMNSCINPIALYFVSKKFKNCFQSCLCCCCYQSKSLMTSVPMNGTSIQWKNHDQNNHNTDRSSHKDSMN
In words: Antagonist activity against human ETA receptor using CHO cells. The experiment is classed as functional, cell-based.

The target in experiment [1] is T2, Endothelin receptor type B (Homo sapiens, UniProt P24530).
T2 sequence (P24530 whole entry): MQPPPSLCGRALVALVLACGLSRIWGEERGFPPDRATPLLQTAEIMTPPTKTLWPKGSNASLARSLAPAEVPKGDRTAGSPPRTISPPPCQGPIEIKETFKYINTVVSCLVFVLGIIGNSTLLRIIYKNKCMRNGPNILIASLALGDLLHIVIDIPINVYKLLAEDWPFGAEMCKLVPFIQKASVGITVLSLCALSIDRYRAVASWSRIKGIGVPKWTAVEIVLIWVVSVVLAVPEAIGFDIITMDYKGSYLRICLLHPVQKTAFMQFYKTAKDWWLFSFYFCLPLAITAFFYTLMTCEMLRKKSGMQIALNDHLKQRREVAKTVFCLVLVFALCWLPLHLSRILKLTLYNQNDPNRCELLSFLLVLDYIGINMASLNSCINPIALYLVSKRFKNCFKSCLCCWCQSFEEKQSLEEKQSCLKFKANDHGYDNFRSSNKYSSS
The experiment in a line: Antagonist activity against human Endothelin B receptor expressed in CHO cells. The class given is functional, cell-based.

SMILES strings stand for the structures.

Data on one compound can be found in ChEMBL document CHEMBL1136386, “Solid-phase synthesis of endothelin receptor antagonists” (Bioorg Med Chem Lett, 2003).

Turning to `CCOc1ccc(-c2cc(C)nc(OC(C(=O)O)C(C)(c3ccccc3)c3ccccc3)n2)cc1` (configuration not stated), the Ki at Endothelin-1 receptor turned out to be 2 nM; in experiment [1] it was 344 nM.

Usually Ki stands for the dissociation constant of the complex between target and ligand, obtained from inhibition or displacement.
